Experimental data taken from patent US7569724B2, “Carbamic acid compounds comprising an amide linkage as HDAC inhibitors” (Topotarget UK Limited, priority 2000, dated 2009).
Like-named read-outs stand apart in the source and are kept apart here.

Legend:
JURKAT human T-cell line = experiment: Secondary assay: cell proliferation WST-1, Jurkat; type: cell-based; conditions: 48 h; for IC50: Homo sapiens, read-out: Cell Proliferation Inhibition WST-1 (IC50 unless otherwise specified) Jurkat
Method: (§1) Compounds with HDAC inhibition activity, as determined using the primary assay, were subsequently evaluated using secondary cell-based assays. The following cell lines were used:
JURKAT—Human T-cell line (ATCC no. TIB-152).
(§2) Cells were plated in 96-well plates at 3-10×10^3 cells/well in 100 μL of culture medium. The following day, different concentrations of candidate compounds were added and the cells incubated at 37° C. for 48 h. Subsequently, 10 μL/well of WST-1 reagent was added and the cells reincubated for 1 hour. After the incubation time, absorbance was measured.
(§3) WST-1 is a tetrazolium salt which is cleaved to formazan dye by cellular enzymes. An expansion in the number of viable cells results in an increase in the overall activity of mitochondrial dehydrogenases in the sample. This augmentation in the enzyme activity leads to an increase in the amount of formazan dye formed, which directly correlates to the number of metabolically active cells in the culture. The formazan dye produced is quantified by a scanning multiwell spectrophotometer by measuring the absorbance of the dye solution at 450 nm wavelength (reference wavelength 690 nm).
(§4) Percent activity (% activity) in reducing the number of viable cells was calculated for each test compound as: % activity={(S^C−B)/(S^o−B)}×100 wherein S^C denotes signal measured in the presence of the compound being tested, S^o denotes signal measured in the absence of the compound being tested, and B denotes the background signal measured in blank wells containing medium only.
(§5) IC50 values were calculated using the software package Prism 3.0 (GraphPad software Inc., San Diego, Calif.), setting top value at 100 and bottom value at 0.

HeLa cells = experiment: Secondary assay: cell proliferation WST-1, HeLa; type: cell-based; conditions: Homo sapiens, 48 h, read-out: Cell Proliferation Inhibition WST-1 (IC50 unless otherwise specified) HeLa
Summary of the method: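 Absorbance at 450 nm (reference 690 nm); % activity vs untreated after blank subtraction, IC50 fitted with top 100 and bottom 0.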

[1] = system: K11 HPV E7 transformed human keratinocyte line; experiment: Secondary assay: cell proliferation WST-1, K11; type: cell-based; conditions: for IC50: Homo sapiens, Keratinocyte, read-out: Cell Proliferation Inhibition WST-1 (IC50 unless otherwise specified) K11
Method: as §1
K11—HPV E7 transformed human keratinocyte line provided by Pidder Jansen-Duerr, Institut für Biomedizinische Alternsforschung, Innsbruck, Austria.
as §2, §3, §4, §5

HDAC (HeLa cell extract) = experiment: Primary assay: deacetylase activity, HeLa cell extract as source of HDAC; type: biochemical, human; conditions: HeLa cell extract
Summary of the method: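 Crude HeLa extract (freeze-thaw in 60 mM TrisCl pH 8.0, 450 mM NaCl, 30% glycerol) was incubated 1 h at 37° C with a [³H]acetyl-labelled histone H4 N-terminal peptide in 20 mM Tris pH 7.4, 10% glycerol.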

[2] = read-out: HDAC Inhibition (IC50 unless otherwise specified) HeLa

O=C(CCCCCCNC(=O)c1ccc2ccccc2c1)NO [PX106493, Naphthalene-2-carboxylic acid (6-hydroxycarbamoyl-hexyl)-amide]
IC50 (JURKAT human T-cell line): 0.2 µM
melting point: 136 to 137 °C
IC50 (HeLa cells): 0.36 µM
IC50 ([1]; 48 h): 2.1 µM

O=C(CCCCCCCNC(=O)c1ccc2ccccc2c1)NO [PX106515, Naphthalene-2-carboxylic acid (7-hydroxycarbamoyl-heptyl)-amide]
IC50 (JURKAT human T-cell line): 2.7 µM
melting point: 138 to 139 °C
IC50 (HDAC (HeLa cell extract); [2]): 0.0277 µM
IC50 (HeLa cells): 3.6 µM
IC50 ([1]; 48 h): 1.8 µM

O=C(CCCCCCC(=O)NCC(O)c1ccccc1)NO (centres unmarked) [PX116226, Octanedioic acid hydroxyamide (2-hydroxy-2-phenyl-ethyl)-amide]
IC50 (JURKAT human T-cell line): 3.2 µM
melting point: 100 to 102 °C
IC50 (HDAC (HeLa cell extract); [2]): 0.562 µM
IC50 (HeLa cells): 4.1 µM
IC50 ([1]; 48 h): 5.1 µM

CN(CCCCCC(=O)NO)C(=O)/C=C/C=C/c1ccccc1 [PX116234]
IC50 (JURKAT human T-cell line): 2.7 µM
melting point: 145 to 147 °C
IC50 (HDAC (HeLa cell extract); [2]): 0.015 µM
IC50 (HeLa cells): 3.4 µM
IC50 ([1]; 48 h): 3.6 µM

O=C(/C=C/c1cccn1-c1ccc(Cl)cc1)NCCCCCC(=O)NO [PX116235, E-3-[1-(4-Chlorophenyl)-1H-pyrrol-2-yl]-N-(5-hydroxycarbamoylpentyl)acrylamide]
IC50 (JURKAT human T-cell line): 0.7 µM
IC50 (HDAC (HeLa cell extract); [2]): 0.01 µM
IC50 (HeLa cells): 1 µM
IC50 ([1]; 48 h): 2.6 µM

O=C(CCCCCCC(=O)NC/C=C/c1ccccc1)NO [PX117416, Octanedioic acid hydroxyamide (3-phenyl-allyl)-amide]
IC50 (JURKAT human T-cell line): 3.6 µM
melting point: 133 to 133.5 °C
HDAC Inhibition HeLa, percent (HDAC (HeLa cell extract); @ 500 nM): 75% @ 500 nM
IC50 (HeLa cells): 7.4 µM
IC50 ([1]; 48 h): 8.5 µM

O=C(CCCCCCC(=O)NCCc1ccccc1)NO [PX117419, Octanedioic acid hydroxyamide phenethyl-amide]
IC50 (JURKAT human T-cell line): 3.5 µM
HDAC Inhibition HeLa, percent (HDAC (HeLa cell extract); @ 500 nM): 46% @ 500 nM
IC50 (HeLa cells): 13 µM
IC50 ([1]; 48 h): > 30 µM

O=C(CCCCCCC(=O)NCCCc1ccccc1)NO [PX117420, Octanedioic acid hydroxyamide (3-phenyl-propyl)-amide]
IC50 (JURKAT human T-cell line): 5.3 µM
melting point: 97 to 98 °C
HDAC Inhibition HeLa, percent (HDAC (HeLa cell extract); @ 500 nM): 73% @ 500 nM
IC50 (HeLa cells): 15 µM
IC50 ([1]; 48 h): 23.5 µM

O=C(/C=C/c1cccc(Oc2ccccc2)c1)NCCCCCC(=O)NO [PX117430, E-N-(5-Hydroxycarbamoylpentyl)-3-(3-phenoxyphenyl)acrylamide]
IC50 (JURKAT human T-cell line): 4.6 µM
IC50 (HDAC (HeLa cell extract); [2]): 0.085 µM
IC50 (HeLa cells): 27 µM
IC50 ([1]; 48 h): 4.4 µM

O=C(C=C(c1ccccc1)c1ccccc1)NCCCCCC(=O)NO [PX117436, E-N-(5-Hydroxycarbamoylpentyl)-3,3-diphenylacrylamide]
IC50 (JURKAT human T-cell line): 3.5 µM
HDAC Inhibition HeLa, percent (HDAC (HeLa cell extract); @ 500 nM): 64% @ 500 nM
IC50 (HeLa cells): 8.5 µM
IC50 ([1]; 48 h): > 30 µM

O=C(/C=C/C=C(c1ccccc1)c1ccccc1)NCCCCCC(=O)NO [PX117437, 2E-5,5-Diphenylpenta-2,4-dienoic acid (5-hydroxycarbamoylpentyl)amide]
IC50 (JURKAT human T-cell line): 1.4 µM
HDAC Inhibition HeLa, percent (HDAC (HeLa cell extract); @ 500 nM): 95% @ 500 nM
IC50 (HeLa cells): 3.7 µM
IC50 ([1]; 48 h): 3.4 µM

O=C(/C=C/c1cccc2ccccc12)NCCCCCC(=O)NO [PX117441, N-(5-Hydroxycarbamoyl-pentyl)-3-naphthalen-1-yl-acrylamide]
IC50 (JURKAT human T-cell line): 4.3 µM
melting point: 135 to 137 °C
IC50 (HDAC (HeLa cell extract); [2]): 0.048 µM
IC50 (HDAC (HeLa cell extract); comparative tables, read-out: HeLa IC50): 0.048 µM
IC50 (HeLa cells): 17 µM
IC50 ([1]; 48 h): 4.9 µM

O=C(CCCCCNC(=O)CC=C(c1ccccc1)c1ccccc1)NO [PX117454, E-4,4-Diphenylbut-3-enoic acid (5-hydroxycarbamoylpentyl)amide]
IC50 (JURKAT human T-cell line): 3.4 µM
IC50 (HDAC (HeLa cell extract); [2]): 0.263 µM
IC50 (HeLa cells): 15 µM
IC50 ([1]; 48 h): 13 µM

O=C(/C=C/c1cccc(NC(=O)/C=C/C=C/c2ccccc2)c1)NO [PX117706, N-{3-[(E)-3-(Hydroxyamino)-3-oxo-1-propenyl]phenyl}-5-phenyl-(2E,4E)-pentadienamide]
IC50 (JURKAT human T-cell line): 1.8 µM
IC50 (HDAC (HeLa cell extract); [2]): 0.32 µM
IC50 (HeLa cells): 30 µM
IC50 ([1]; 48 h): 6.9 µM

CC(/C=C/C(=O)Nc1cccc(/C=C/C(=O)NO)c1)=C\c1ccccc1 [PX117707, N-{3-[(E)-3-(Hydroxyamino)-3-oxo-1-propenyl]phenyl}-4-methyl-5-phenyl-(2E,4E)-pentadienamide]
IC50 (JURKAT human T-cell line): 1.5 µM
melting point: 145 to 148 °C
IC50 (HDAC (HeLa cell extract); [2]): 0.235 µM
IC50 (HeLa cells): 43 µM
IC50 ([1]; 48 h): 7.7 µM

O=C(/C=C/c1cccc(NC(=O)/C=C/c2ccc3c(c2)OCO3)c1)NO [PX117711, (E)-3-(1,3-Benzodioxol-5-yl)-N-{3-[(E)-3-(hydroxyamino)-3-oxo-1-propenyl]phenyl}-2-propenamide]
IC50 (JURKAT human T-cell line): 0.92 µM
melting point: 128 °C
IC50 (HDAC (HeLa cell extract); [2]): 0.44 µM
IC50 (HeLa cells): 9.8 µM
IC50 ([1]; 48 h): 7.9 µM

O=C(/C=C/c1ccc(C(F)(F)F)cc1)NCCCCCC(=O)NO [PX117717, N-(5-Hydroxycarbamoyl-pentyl)-3-(4-trifluoromethyl-phenyl)-acrylamide]
IC50 (JURKAT human T-cell line): 0.41 µM
melting point: 132 to 134 °C
IC50 (HDAC (HeLa cell extract); [2]): 0.022 µM
IC50 (HeLa cells): 5.9 µM
IC50 ([1]; 48 h): 2.34 µM

O=C(/C=C/c1cccc(OC(F)(F)F)c1)NCCCCCC(=O)NO [PX117718, N-(5-Hydroxycarbamoyl-pentyl)-3-(3-trifluoromethoxy-phenyl)-acrylamide]
IC50 (JURKAT human T-cell line): 4.4 µM
melting point: 109 to 111 °C
IC50 (HDAC (HeLa cell extract); [2]): 0.067 µM
IC50 (HeLa cells): 39 µM
IC50 ([1]; 48 h): 3.7 µM

O=C(/C=C/c1ccc(Cl)cc1F)NCCCCCC(=O)NO [PX117719, 3-(4-Chloro-2-fluoro-phenyl)-N-(5-hydroxycarbamoyl-pentyl)-acrylamide]
IC50 (JURKAT human T-cell line): 0.56 µM
IC50 (HeLa cells): 6.8 µM
IC50 ([1]; 48 h): 0.94 µM

O=C(CCCCCCC(=O)Nc1ccc(-c2ccccc2)cc1)NO [PX117720, Octanedioic acid biphenyl-4-ylamide hydroxamide]
IC50 (JURKAT human T-cell line): 0.26 µM
melting point: 227 to 229 °C
IC50 (HDAC (HeLa cell extract); [2]): 0.04 µM
IC50 (HeLa cells): 1.8 µM
IC50 ([1]; 48 h): 2.5 µM

CC(C)(C(=O)NCCCCCC(=O)NO)c1ccc(Cl)cc1 [PX117722, 6-[2-(4-Chlorophenyl)-2-methyl-propionylamino]-hexanoic acid hydroxyamide]
IC50 (JURKAT human T-cell line): 8.8 µM
IC50 (HDAC (HeLa cell extract); [2]): > 0.1 µM
IC50 ([1]; 48 h): > 30 µM

O=C(CCCCCNC(=O)c1sccc1OCc1ccccc1)NO [PX117723]
IC50 (JURKAT human T-cell line): 1.2 µM
HDAC Inhibition HeLa, percent (HDAC (HeLa cell extract); @ 500 nM): 46% @ 500 nM
IC50 ([1]; 48 h): 10 µM

O=C(CCCCCNC(=O)c1ccc(Oc2ccccc2)cc1)NO [PX117726]
IC50 (JURKAT human T-cell line): 9.9 µM
HDAC Inhibition HeLa, percent (HDAC (HeLa cell extract); @ 500 nM): 35% @ 500 nM
IC50 ([1]; 48 h): 4.1 µM

O=C(CCCCCNC(=O)Cc1ccccc1OCc1ccccc1)NO [PX117728]
IC50 (JURKAT human T-cell line): 4.1 µM
IC50 (HDAC (HeLa cell extract); [2]): > 0.1 µM
IC50 ([1]; 48 h): 28 µM

Cc1ccc(C(CC(=O)NCCCCCC(=O)NO)NC(=O)OCc2ccccc2)cc1 (centres unmarked) [PX117729, [2-(5-Hydroxycarbamoyl-pentylcarbamoyl)-1-p-tolyl-ethyl]-carbamic acid benzyl ester]
IC50 (JURKAT human T-cell line): 2.8 µM
melting point: 146 to 148 °C
HDAC Inhibition HeLa, percent (HDAC (HeLa cell extract); @ 100 nM): 13% @ 100 nM
IC50 (HeLa cells): 33 µM
IC50 ([1]; 48 h): 23 µM

C/C(C(=O)NCCCCCC(=O)NO)=C(/C)c1ccccc1 [PX117737, E-2-Methyl-3-phenylbut-2-enoic acid (5-hydroxycarbamoylpentyl)amide]
IC50 (JURKAT human T-cell line): 2.2 µM
IC50 (HDAC (HeLa cell extract); [2]): 1.2 µM
IC50 (HeLa cells): 32 µM
IC50 ([1]; 48 h): > 30 µM

O=C(CCCCCNC(=O)[C@H](Cc1c[nH]c2ccccc12)NC(=O)c1ccc2ccccc2c1)NO [PX117783, (S)-Naphthalene-2-carboxylic acid [1-(5-hydroxycarbamoyl-pentylcarbamoyl)-2-(1H-indol-3-yl)-ethyl]-amide]
IC50 (JURKAT human T-cell line): 1.6 µM
IC50 (HDAC (HeLa cell extract); [2]): 0.1 µM
IC50 (HeLa cells): 6 µM
IC50 ([1]; K11, 48 h): 9.7 µM

O=C(CCCCCNC(=O)[C@H](Cc1c[nH]c2ccccc12)NC(=O)CCCNC(=O)OCc1ccccc1)NO [PX117785, (S)-Carbamic acid, [4-[[2-[[6-(hydroxyamino)-6-oxohexyl]amino]-1-(1H-indol-3-ylmethyl)-2-oxoethyl]amino]-4-oxobutyl]-, phenylmethyl ester]
Cell Proliferation Inhibition WST-1 (IC50 unless otherwise specified) Jurkat (JURKAT human T-cell line): Inactive
IC50 (HDAC (HeLa cell extract); [2]): 0.192 µM
Cell Proliferation Inhibition WST-1 (IC50 unless otherwise specified) K11 ([1]; K11, 48 h): Inactive
